Laboratory results from ChEMBL document CHEMBL4715817, “Python Cathelicidin CATHPb1 Protects against Multidrug-Resistant Staphylococcal Infections by Antimicrobial-Immunomodulatory Duality” (J Med Chem, 2018).
Converted amounts (≈) assume the structure as drawn. The source made the active and inactive calls. The rule behind the calls is not given here. Peptide text beside a SMILES is read from it.

Tests used:
[1] = tested on: Staphylococcus aureus; test: Antibacterial activity against vancomycin-resistant Staphylococcus aureus assessed as neutrophil-induced bacterial cell killing neutrophils pretreated with compound measured after 15 to 60 mins; format: functional, organism-based; conditions: dose 10-40 µg/ml, time 15-60 min
[2] = tested on: Escherichia coli; test: In vivo antibacterial activity against Escherichia coli ATCC 25922 infected in kunming mouse assessed as decrease in bacterial load in peritoneal lavage at 10 mg/kg, ip administered 4 hrs after infection and measured 18 hrs after infection; format: functional, organism-based; conditions: time 14.0 hrs
[3] = tested on: Staphylococcus aureus; test: Antibacterial activity against vancomycin-resistant Staphylococcus aureus assessed as bacterial growth inhibition in presence of 80% human serum incubated upto 8 hrs; format: functional; conditions: time hrs <=8
[4] = Toxicity in Kunming mouse assessed as effect on IL-6 levels at 10 mg/kg, ip measured after 5 hrs by ELISA; format: organism-based; conditions: in vivo
[5] = Immunomodulatory activity in mouse peritoneal macrophage assessed as increase in MCP-1 mRNA level at 20 ug/ml measured after 6 hrs by qRT-PCR analysis relative to control; format: functional; conditions: dose 20 µg/ml
[6] = tested on: Nakaseomyces glabratus; test: Antibiofilm activity against Candida glabrata assessed as biofilm eradication at BIC-5 by XTT and crystal violet staining assay relative to control; format: functional
[7] = tested on: Neutrophil; test: Immunomodulatory activity in neutrophils (unknown origin) assessed as increase in MCP-1 level at 20 ug/ml measured after 12 hrs by ELISA; format: functional, cell-based; conditions: dose 20.0 µg/ml
[8] = tested on: Mus musculus; test: Immunomodulatory activity in Kunming mouse infected with vancomycin-resistant Staphylococcus aureus assessed as decreased in TNF-alpha level in peritoneal lavage at 10 mg/kg, ip administered 4 hrs after infection by ELISA; format: functional, organism-based
[9] = tested on: Macrophage; test: Inhibition of NFkappaB in mouse peritoneal macrophage assessed as LPS-induced IkappaBalpha degradation at 5 to 20 ug/ml pretreated for 1 hr followed by LPS stimulation measured after 30 mins by Western blot analysis; format: tissue-based; conditions: dose 20.0 µg/ml, time 1.5 hrs
[10] = tested on: Mus musculus; test: Immunomodulatory activity in Kunming mouse infected with vancomycin-resistant Staphylococcus aureus assessed as effect number of inflammatory monocytes in peritoneal cavity at 10 mg/kg, ip measured upto 24 hrs by flow cytometry; format: functional, organism-based; conditions: time hrs <=24
[11] = tested on: Enterococcus faecium; test: Antimicrobial activity against Enterococcus faecium IS 1299 incubated for 16 to 18 hrs by fluorescence microplate reader analysis; format: functional; conditions: time 16-18 hrs
[12] = tested on: Mus musculus; test: Immunomodulatory activity in Kunming mouse infected with vancomycin-resistant Staphylococcus aureus assessed as decreased in IL-1beta level in peritoneal lavage at 10 mg/kg, ip administered 4 hrs after infection by ELISA; format: functional, organism-based
[13] = tested on: Mus musculus; test: Immunomodulatory activity in Kunming mouse infected with vancomycin-resistant Staphylococcus aureus assessed as increased in MCP-1 level in peritoneal lavage at 10 mg/kg, ip administered 4 hrs after infection by ELISA; format: functional, organism-based
[14] = tested on: Neutrophil; test: Immunomodulatory activity in neutrophils (unknown origin) assessed as inhibition of LPS-induced CXCL1/KC level at 5 to 20 ug/ml by ELISA; format: functional, cell-based; conditions: dose 5-20 µg/ml
[15] = tested on: Candida albicans; test: Antimicrobial activity against Candida albicans IS 08022821 incubated for 16 to 18 hrs by fluorescence microplate reader analysis; format: functional; conditions: time 16-18 hrs
[16] = tested on: Klebsiella pneumoniae; test: Antimicrobial activity against Klebsiella pneumoniae IS 08B343 incubated for 16 to 18 hrs by fluorescence microplate reader analysis; format: functional; conditions: time 16-18 hrs
[17] = tested on: Macrophage; test: Immunomodulatory activity in mouse peritoneal macrophage assessed as increase in MCP-1 level at 20 microg/ml measured after 24 hrs by ELISA; format: functional, tissue-based; conditions: dose 20.0 µg/ml
[18] = tested on: Escherichia coli; test: Antibiofilm activity against Escherichia coli assessed as biofilm eradication at BIC-5 by XTT and crystal violet staining assay relative to control; format: functional
[19] = tested on: Pseudomonas aeruginosa; test: Antimicrobial activity against Pseudomonas aeruginosa ATCC 27853 incubated for 16 to 18 hrs by fluorescence microplate reader analysis; format: functional; conditions: time 16-18 hrs
[20] = Toxicity in Kunming mouse assessed as effect on IL-10 levels at 10 mg/kg, ip measured after 5 hrs by ELISA; format: organism-based; conditions: in vivo
[21] = tested on: Mus musculus; test: Immunomodulatory activity in Kunming mouse infected with vancomycin-resistant Staphylococcus aureus assessed as increased in MCP-1 level in peritoneal lavage at 10 mg/kg, ip administered 24 hrs before infection by ELISA; format: functional, organism-based
[22] = tested on: Staphylococcus aureus; test: Antimicrobial activity against methicillin sensitive Staphylococcus aureus ATCC 25923 incubated for 16 to 18 hrs by fluorescence microplate reader analysis; format: functional; conditions: time 16-18 hrs
[23] = tested on: Neutrophil; test: Immunomodulatory activity in neutrophils (unknown origin) assessed as inhibition of LPS-induced IL-6 level at 5 to 20 ug/ml by ELISA; format: functional, cell-based; conditions: dose 5-20 µg/ml
[24] = tested on: L02; test: Cytotoxicity against human HL7702 cells assessed as cell death at 100 ug/ml by MTT assay; format: cell-based
[25] = tested on: Staphylococcus aureus; test: Antimicrobial activity against methicillin resistant Staphylococcus aureus IS 08032712, incubated for 16 to 18 hrs by fluorescence microplate reader analysis; format: functional; conditions: time 16-18 hrs
[26] = Hemolytic activity in human erythrocytes measured at 100 ug/ml; format: ADME, cell-based, Erythrocyte; conditions: at 100 µg/mL, read-out: Activity
[27] = tested on: Escherichia coli; test: Antimicrobial activity against Escherichia coli IS 08032813 incubated for 16 to 18 hrs by fluorescence microplate reader analysis; format: functional; conditions: time 16-18 hrs
[28] = tested on: Staphylococcus aureus; test: In vivo antibacterial activity against vancomycin resistant Staphylococcus aureus infected in ip dosed kunming mouse assessed as increase in survival rate administered 4 hrs after infection and measured up to 7 days after infection; format: functional, organism-based; conditions: dose 5-20 mg/kg, time day <=7
[29] = tested on: Bacillus cereus; test: Antimicrobial activity against Bacillus cereus incubated for 16 to 18 hrs by fluorescence microplate reader analysis; format: functional; conditions: time 16-18 hrs
[30] = tested on: Neutrophil; test: Immunomodulatory activity in neutrophils (unknown origin) assessed as increase in CXCL1/KC level at 20 ug/ml measured after 12 hrs by ELISA; format: functional, cell-based; conditions: dose 20.0 µg/ml
[31] = Toxicity in Kunming mouse assessed as effect on IL-1beta levels at 10 mg/kg, ip measured after 5 hrs by ELISA; format: organism-based; conditions: in vivo
[32] = tested on: RAW264.7; test: Induction of ROS production in mouse RAW 264.7 cells by fluorescence assay; format: functional, cell-based; conditions: dose 10-40 µg/ml
[33] = tested on: Staphylococcus aureus; test: Antibacterial activity against FITC-labelled Staphylococcus aureus ATCC 25923 infected in neutrophil cells assessed as entrapment of bacteria by NET releasing neutrophil at 20 to 40 ug/ml by fluorescence analysis; format: functional, organism-based; conditions: dose 20-40 µg/ml
[34] = tested on: Salmonella paratyphi; test: Antimicrobial activity against Salmonella paratyphi IS 738 incubated for 16 to 18 hrs by fluorescence microplate reader analysis; format: functional, Salmonella enterica subsp. enterica serovar Paratyphi A; conditions: Salmonella enterica, time 16-18 hrs
[35] = Stability of compound in 80% human serum assessed as intact compound remained measured upto 8 hrs by HPLC analysis; format: cell-free; conditions: time hrs <=8
[36] = tested on: LAD2; test: Cytotoxicity against human LAD2 cells assessed as mast cell degranulation at 100 ug/ml relative to control; format: cell-based; conditions: at 100 µg/mL
[37] = tested on: Staphylococcus aureus; test: In vivo antibacterial activity against vancomycin resistant Staphylococcus aureus infected in kunming mouse assessed as reduction in bacterial load in spleen at 10 mg/kg, ip administered 4 hrs after infection; format: functional, organism-based
[38] = tested on: Mus musculus; test: Immunomodulatory activity in mouse assessed as increase number of neutrophil in peritoneal cavity at 10 mg/kg, ip measured after 5 to 24 hrs by flow cytometry; format: functional, organism-based; conditions: time 5-24 hrs

SMILES: CC[C@H](C)[C@H](NC(=O)[C@@H]1CCCN1C(=O)[C@@H](NC(=O)[C@@H](NC(=O)CNC(=O)CNC(=O)[C@@H](NC(=O)[C@H](Cc1ccccc1)NC(=O)[C@@H](NC(=O)[C@H](CCCCN)NC(=O)[C@@H](NC(=O)[C@H](CCCCN)NC(=O)[C@H](CCCCN)NC(=O)[C@H](Cc1ccccc1)NC(=O)[C@@H](NC(=O)[C@H](CCCCN)NC(=O)[C@H](CCCNC(=N)N)NC(=O)[C@H](Cc1ccccc1)NC(=O)CNC(=O)[C@H](CCCCN)NC(=O)[C@H](CCCCN)NC(=O)[C@@H](NC(=O)[C@H](CCCCN)NC(=O)[C@H](CCCNC(=N)N)NC(=O)[C@H](Cc1ccccc1)NC(=O)[C@H](Cc1ccccc1)NC(=O)[C@H](CCCCN)NC(=O)[C@H](CCCCN)NC(=O)[C@H](Cc1ccccc1)NC(=O)[C@H](CCCNC(=N)N)NC(=O)[C@@H](N)CCCCN)[C@@H](C)CC)[C@@H](C)CC)[C@@H](C)O)[C@@H](C)CC)[C@@H](C)CC)[C@@H](C)O)[C@@H](C)CC)C(=O)O (H-KRFKKFFRKIKKGFRKIFKKTKIFIGGTIPI-OH)
- Activity [1]: Dose-dependent effect
- Activity [2]: Active
- MIC [3]: 25 µg/mL
- Activity [4]: Non-Toxic
- fold change (FC) [5]: 13
- Activity [6]: 37.47%
- Activity [7]: Active
- Activity [8]: Active
- inhibition [9]: Active
- Activity [10]: inactive
- MIC [11]: 1.17 µg/mL (≈ 0.308 µM)
- Activity [12]: Active
- Activity [13]: Active
- inhibition [14]: inactive
- MIC [15]: 1.17 µg/mL (≈ 0.308 µM)
- MIC [16]: 1.17 µg/mL (≈ 0.308 µM)
- inhibition [17]: Active
- Activity [18]: 65.98%
- MIC [19]: 1.17 µg/mL (≈ 0.308 µM)
- Activity [20]: Non-Toxic
- Activity [21]: Active
- MIC [22]: 1.17 µg/mL (≈ 0.308 µM)
- inhibition [23]: Active
- Activity [24]: 4.46%
- MIC [25]: 1.17 µg/mL (≈ 0.308 µM)
- hemolysis at 100 ug/ml [26]: 6.63%
- MIC [27]: 1.17 µg/mL (≈ 0.308 µM)
- Activity [28]: Dose-dependent effect
- MIC [29]: 1.17 µg/mL (≈ 0.308 µM)
- Activity [30]: Active
- Activity [31]: Non-Toxic
- Activity [32]: Dose-dependent effect
- Activity [33]: Active
- MIC [34]: 1.17 µg/mL (≈ 0.308 µM)
- Stability [35]: 30%
- Activity [36]: 10.97%
- Activity [37]: Active
- Activity [38]: Active
